These results are taken from patent publication US10017504B2, “Piperidine isoxazole and isothiazole orexin receptor antagonists” (MERCK SHARP & DOHME CORP., priority 2014, dated 2018).

Each structure is given as a SMILES string.

Sequence of human orexin-2 receptor (O43614 whole entry): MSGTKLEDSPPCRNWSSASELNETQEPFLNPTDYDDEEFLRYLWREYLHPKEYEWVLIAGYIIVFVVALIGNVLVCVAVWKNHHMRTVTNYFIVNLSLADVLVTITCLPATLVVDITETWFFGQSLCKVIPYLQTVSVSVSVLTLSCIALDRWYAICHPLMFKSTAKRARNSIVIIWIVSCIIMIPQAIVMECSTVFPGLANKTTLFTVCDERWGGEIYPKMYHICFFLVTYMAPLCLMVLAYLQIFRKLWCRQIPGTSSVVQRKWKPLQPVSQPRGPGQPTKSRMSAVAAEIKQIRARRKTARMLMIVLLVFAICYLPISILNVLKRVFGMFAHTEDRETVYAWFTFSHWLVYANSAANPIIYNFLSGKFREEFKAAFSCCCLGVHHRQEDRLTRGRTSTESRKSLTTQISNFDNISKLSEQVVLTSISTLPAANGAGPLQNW

For the test, the target named is human orexin-2 receptor (Homo sapiens (Human), UniProt O43614). Briefly: FLIPR Ca2+ Flux Assay, orexin-2 receptor. Format: cell-based. Particulars: CHO cells expressing the human orexin-2 receptor; agonist 70 pM Ala-6,12 human orexin-A; read-out: hOX2 FLIPR IC50. How it is done:
In a typical experiment the OX1 and OX2 receptor antagonistic activity of the compounds of the present invention was determined in accordance with the following experimental method. For intracellular calcium measurements, Chinese hamster ovary (CHO) cells expressing the rat orexin-1 receptor or the human orexin-2 receptor, are grown in Iscove's modified DMEM containing 2 mM L-glutamine, […], 1% hypoxanthine-thymidine supplement, 100 U/ml penicillin, 100 μg/ml streptomycin and 10% heat-inactivated fetal calf serum (FCS). The cells are seeded at 20,000 cells/well into Becton-Dickinson black 384-well clear bottom sterile plates coated with poly-D-lysine. All reagents are from GIBCO-Invitrogen Corp. The seeded plates are incubated overnight at 37° C. and 5% CO2. Ala-6,12 human orexin-A as the agonist is prepared as a 1 mM stock solution in 1% bovine serum albumin (BSA) and diluted in assay buffer (HBSS containing 20 mM HEPES, 0.1% BSA and 2.5 mM probenecid, pH7.4) for use in the assay at a final concentration of 70 pM. Test compounds are prepared as 10 mM stock solution in DMSO, then diluted in 384-well plates, first in DMSO, then assay buffer. On the day of the assay, cells are washed 3 times with 100 μl assay buffer and then incubated for 60 min (37° C., 5% CO2) in 60 μl assay buffer containing 1 μM Fluo-4AM ester, 0.02% pluronic acid, and 1% BSA. The dye loading solution is then aspirated and cells are washed 3 times with 100 μl assay buffer. 30 μl of that same buffer is left in each well. Within the Fluorescent Imaging Plate Reader (FLIPR, Molecular Devices), test compounds are added to the plate in a volume of 25 μl, incubated for 5 min and finally 25 μl of agonist is added. Fluorescence is measured for each well at 1 second intervals for 5 minutes and the height of each fluorescence peak is compared to the height of the fluorescence peak induced by 70 pM Ala-6,12 orexin-A with buffer in place of antagonist. […] The intrinsic orexin receptor antagonist activity of a compound which may be used in the present invention may be determined by these assays.
(Calcium flux is commonly read through the fluorescence of an indicator in the cells.)
Turning to `CCC(C)(O)c1cc([C@@H]2CC[C@@H](C)N(C(=O)c3ccccc3-n3nccn3)C2)on1` (stereo partly drawn) [Example 55, 2-{5-[(3R,6R)-6-Methyl-1-{[2-(2H-1,2,3-triazol-2-yl)phenyl]carbonyl}piperidin-3-yl]isoxazol-3-yl}butan-2-ol], the IC50 (commonly the concentration at which inhibition is half-maximal) is 39.8 nM.
As for `C[C@@H]1CC[C@@H](c2cc(C3CCCO3)no2)CN1C(=O)c1ccccc1-n1nccn1` (stereo partly drawn) [Example 56, (2R,5R)-2-Methyl-5-[3-(tetrahydrofuran-2-yl)isoxazol-5-yl]-1-{[2-(2H-1,2,3-triazol-2-yl)phenyl]carbonyl}piperidine], the figure is 311 nM; as for `COC(C)(C)c1cc([C@@H]2CC[C@@H](C)N(C(=O)c3ccccc3-n3nccn3)C2)on1` [Example 57, (2R,5R)-5-[3-(1-Methoxy-1-methylethyl)isoxazol-5-yl]-2-methyl-1-{[2-(2H-1,2,3-triazol-2-yl)phenyl]carbonyl}piperidine], 14.4 nM.
Then `C[C@@H]1CC[C@@H](c2cc(C(C)(C)O)sn2)CN1C(=O)c1ccccc1-n1nccn1` [Example 58, 2-{3-[(3R,6R)-6-Methyl-1-{[2-(2H-1,2,3-triazol-2-yl)phenyl]carbonyl}piperidin-3-yl]isothiazol-5-yl}propan-2-ol], with 13.9 nM; and `C[C@@H]1CC[C@@H](c2cc(C(C)(C)O)sn2)CN1C(=O)c1ccccc1-n1ncnn1` [Example 60, 2-{3-[(3R,6R)-6-Methyl-1-{[2-(2H-tetrazol-2-yl)phenyl]carbonyl}piperidin-3-yl]isothiazol-5-yl}propan-2-ol], with 63.8 nM.
Then `C[C@@H]1CC[C@@H](c2cc(C(C)(C)O)sn2)CN1C(=O)c1ccc(F)cc1-n1nccn1` [Example 61, 2-{3-[(3R,6R)-1-{[4-Fluoro-2-(2H-1,2,3-triazol-2-yl)phenyl]carbonyl}-6-methylpiperidin-3-yl]isothiazol-5-yl}propan-2-ol], with 18.6 nM.
On to `C[C@@H]1CC[C@@H](c2cc(C(C)(C)O)sn2)CN1C(=O)c1ccccc1C1(C#N)CC1` [Example 62, 1-[2-({(2R,5R)-5-[5-(1-Hydroxy-1-methylethyl)isothiazol-3-yl]-2-methylpiperidin-1-yl}carbonyl)phenyl]cyclopropanecarbonitrile], for which the IC50 turned out to be 19.1 nM.
In the case of `C[C@@H]1CC[C@@H](c2cc(C(C)(C)O)sn2)CN1C(=O)c1ccccc1-c1ncccn1` [Example 63, 2-(3-{(3R,6R)-6-Methyl-1-[(2-pyrimidin-2-ylphenyl)carbonyl]piperidin-3-yl}isothiazol-5-yl)propan-2-ol], the IC50 came out at 42.3 nM.
As for `C[C@@H]1CC[C@@H](c2cc(C(C)(C)O)sn2)CN1C(=O)c1ccsc1-c1ncccn1` [Example 64, 2-(3-{(3R,6R)-6-Methyl-1-[(2-pyrimidin-2-ylthiophen-3-yl)carbonyl]piperidin-3-yl}isothiazol-5-yl)propan-2-ol], the figure is 36.8 nM.
Then `C[C@@H]1CC[C@@H](c2cc(C(C)(C)O)sn2)CN1C(=O)c1cscc1-c1ncccn1` [Example 65, 2-(3-{(3R,6R)-6-Methyl-1-[(4-pyrimidin-2-ylthiophen-3-yl)carbonyl]piperidin-3-yl}isothiazol-5-yl)propan-2-ol], with 46.8 nM; and `C[C@@H]1CC[C@@H](c2cc(C(C)(C)O)sn2)CN1C(=O)c1cscc1-n1nccn1` [Example 66, 2-{3-[(3R,6R)-6-Methyl-1-{[4-(2H-1,2,3-triazol-2-yl)thiophen-3-yl]carbonyl}piperidin-3-yl]isothiazol-5-yl}propan-2-ol], with 21.1 nM; and `COC(=O)c1ccccc1C(=O)N1C[C@H](c2cc(C(C)(C)O)sn2)CC[C@H]1C` [Example 67, Methyl 2-({(2R,5R)-5-[5-(1-hydroxy-1-methylethyl)isothiazol-3-yl]-2-methylpiperidin-1-yl}carbonyl)benzoate], with 43.6 nM.
Then `C[C@@H]1CC[C@@H](c2cc(C(C)(C)O)sn2)CN1C(=O)c1ccccc1OC(F)(F)F` [Example 68, 2-{3-[(3R,6R)-6-Methyl-1-{[2-(trifluoromethoxy)phenyl]carbonyl}piperidin-3-yl]isothiazol-5-yl}propan-2-ol], with 22.8 nM.
As to `C[C@@H]1CC[C@@H](c2cc(C(C)(C)O)sn2)CN1C(=O)c1cccnc1OCC(F)F` [Example 69, 2-{3-[(3R,6R)-1-{[2-(2,2-Difluoroethoxy)pyridin-3-yl]carbonyl}-6-methylpiperidin-3-yl]isothiazol-5-yl}propan-2-ol], the IC50 stood at 42.8 nM.
As for `COCCc1ccccc1C(=O)N1C[C@H](c2cc(C(C)(C)O)sn2)CC[C@H]1C` [Example 70, 2-{3-[(3R,6R)-1-{[2-(2-methoxyethyl)phenyl]carbonyl}-6-methylpiperidin-3-yl]isothiazol-5-yl}propan-2-ol], the figure is 935 nM.
